From publication PMC10552397 (Cell Communication and Signaling : CCS, 2023)
Where “and” joins values, the source holds several entries; their conditions need not be identical. Equal values may be shown once.

Target: GRASP55 (Homo sapiens, UniProt Q9H8Y8)
Test: Thermal proteome profiling compound concentration range (TPP-CCR), GRASP55
Type: binding
Design: endogenous in cells
Conditions: for GORASP2 dose response, average: average of n=1-3; for GORASP2 dose response, fit: value of fitted curve; for EC50: 3 min at 50 °C; for normalized.Reporter.intensity: single replicates n1-n3
Experimental: Adherent cells were washed in the dish once with DPBS and harvested by Trypsin–EDTA (0.25%, Thermo Fisher Scientific, Waltham, MA, USA, #25,200,056) treatment. After addition of 35 mL DPBS, the cells were pelleted by centrifugation (300 rcf, 5 min, 4 °C), and washed twice by re-suspending and pelleting using 45 mL and 1 mL DPBS, respectively, to remove excess trypsin and for transfer into pre-weighed 2 mL Eppendorf tubes to determine the cell pellet wet weights as quality check after centrifugation (300 rcf, 5 min, 4 °C) and complete removal of the supernatant. Cells for TPP-TR were resuspended using 1 mL, and cells for TPP-CCR were resuspended using 0.4 mL ice-cold DPBS, respectively, supplemented with protease inhibitor cocktail (Roche, Basel, Switzerland, #5,892,791,001). […] Cell suspensions were shortly centrifuged (1 s or less) using a benchtop centrifuge to release trapped air and to achieve an even liquid level without pelleting the cells. The samples were then temperature treated by a 7 min pre-incubation at RT, 3 min temperature treatment in the PCR cycler (DNA Engine Tetrad 2, lid temperature 70 °C) at different temperatures (37 °C or 50 °C for TPP-CCR or the temperatures given in Table 2 for TPP-TR) and a 3 min post-incubation at RT in a metal heating block for uniform heat dissipation.
After temperature treatment, samples were supplemented with lysis buffer (final concentrations: 0.36 U/µL benzonase, 1.5 mM MgCl2, 1 mM Na3VO4, 10 mM NaF, 2.5 mM Na4P2O7, 0.8% w/v NP-40) for 1 h on ice. The lysates were cleared from cell debris as well as denatured and precipitated proteins by centrifugation at 20,000 rcf and 4 °C for 30 min. The total protein concentration of the resulting cell extracts containing the fraction of soluble, non-denatured proteins was determined (Pierce 660 nm Protein Assay, BSA as standard). Cell extracts were shock frozen in liquid nitrogen and stored at -80 °C. The three replicates for TPP-TR and TPP-CCR were prepared on consecutive days, respectively. The two (37 °C or 50 °C) x ten (concentrations) x three (replicates) = 60 TPP-CCR samples and two (treatment and control) x ten (temperatures) x three (replicates) = 60 TPP-TR samples were analyzed by LC–MS/MS. GRASP55 was additionally quantified from the TPP-TR samples by immunoblotting as described in the respective section.
For TPP-CCR, SP3 was performed as described with slight modifications to the original protocol using on average 5 µg total protein per sample and resulting in theoretically 5 µg peptides in 22 µL 50 mM triethylammonium bicarbonate per sample. For each of the two (treatment and control) x three (replicates) = six TPP-TR temperature treatment sample sets, the same volume for each of the ten temperature samples was used for SP3 processing, thus, maintaining the information about the temperature dependent non-denatured protein content. This volume was calculated such that the lowest two temperature samples (36.5 °C and 41.2 °C) contained 10 µg total protein on average. The samples were diluted using SDS containing buffer (20 µL final, final concentrations: 7.5% glycerol, 3% SDS, 37.5 mM Tris/HCl pH 7.0) and the proteins were reduced, alkylated, and precipitated on the solid phase as described using adjusted volumes (2 × due to processing 10 µg instead of 5 µg). Volumes for washing of the aggregated proteins on the solid phase and for tryptic digestion were kept unchanged, however, to maintain the maximal total protein to trypsin/Lys-C ratio at 50:1 in the two rounds of digestion (13 h and 4 h), respectively, 2 × 0.2 µg trypsin/Lys-C was used per sample, theoretically resulting in at most about 10 µg peptides in 22 µL 50 mM triethylammonium bicarbonate. […]

## CCCCCC1=C/C(=C/c2[nH]c(-c3ccc[nH]3)cc2OC)N=C1C [Prodigiosin, prodigiosin]
37°C, 0.0976562 nM prodigiosin
  GORASP2 dose response, average: -0.42
  GORASP2 dose response, fit: 0.0663
37°C, 0.390625 nM prodigiosin
  GORASP2 dose response, average: 0.54
  GORASP2 dose response, fit: 0.10
37°C, 1.5625 nM prodigiosin
  GORASP2 dose response, average: 0.10
  GORASP2 dose response, fit: 0.16
37°C, 6.25 nM prodigiosin
  GORASP2 dose response, average: 0.08
  GORASP2 dose response, fit: 0.23
37°C, 25 nM prodigiosin
  GORASP2 dose response, average: 0.33
  GORASP2 dose response, fit: 0.33
37°C, 100 nM prodigiosin
  GORASP2 dose response, average: 0.64
  GORASP2 dose response, fit: 0.44
37°C, 400 nM prodigiosin
  GORASP2 dose response, average: 0.47
  GORASP2 dose response, fit: 0.56
37°C, 1600 nM prodigiosin
  GORASP2 dose response, average: 0.85
  GORASP2 dose response, fit: 0.68
37°C, 6400 nM prodigiosin
  GORASP2 dose response, average: 0.55
  GORASP2 dose response, fit: 0.77
50°C, 0.0976562 nM prodigiosin
  GORASP2 dose response, average: 0.0745
  GORASP2 dose response, fit: 0.06
50°C, 0.390625 nM prodigiosin
  GORASP2 dose response, average: 0.13
  GORASP2 dose response, fit: 0.17
50°C, 1.5625 nM prodigiosin
  GORASP2 dose response, average: 0.40
  GORASP2 dose response, fit: 0.39
50°C, 6.25 nM prodigiosin
  GORASP2 dose response, average: 0.72
  GORASP2 dose response, fit: 0.68
50°C, 25 nM prodigiosin
  GORASP2 dose response, average: 0.81
  GORASP2 dose response, fit: 0.87
50°C, 100 nM prodigiosin
  GORASP2 dose response, average: 0.97
  GORASP2 dose response, fit: 0.96
50°C, 400 nM prodigiosin
  GORASP2 dose response, average: 0.97
  GORASP2 dose response, fit: 0.99
50°C, 1600 nM prodigiosin
  GORASP2 dose response, average: 1.04
  GORASP2 dose response, fit: 1.00
50°C, 6400 nM prodigiosin
  GORASP2 dose response, average: 0.85
  GORASP2 dose response, fit: 1.00
EC50 of GRASP55 stabilization, HeLa wt, 6 h
  EC50: 2.6 nM
GRASP55/GORASP2
  diff pseudoR2(50-37°C): 0.81
GRASP55/GORASP2, 37°C
  pseudoR2 (dose response curve fit, 37°C): 0.16
GRASP55/GORASP2, 37°C, 0.0976562 nM prodigiosin
  normalized.Reporter.intensity: 0.13 and -0.19 and -1.19
GRASP55/GORASP2, 37°C, 0.390625 nM prodigiosin
  normalized.Reporter.intensity: 0.0349 and 0.46 and 1.11
GRASP55/GORASP2, 37°C, 1.5625 nM prodigiosin
  normalized.Reporter.intensity: 0.45 and -0.0156 and -0.12
GRASP55/GORASP2, 37°C, 6.25 nM prodigiosin
  normalized.Reporter.intensity: 0.55 and 0.11 and -0.42
GRASP55/GORASP2, 37°C, 25 nM prodigiosin
  normalized.Reporter.intensity: 0.93 and 0.24 and -0.19
GRASP55/GORASP2, 37°C, 100 nM prodigiosin
  normalized.Reporter.intensity: 1.03 and 0.10 and 0.80
GRASP55/GORASP2, 37°C, 400 nM prodigiosin
  normalized.Reporter.intensity: 0.81 and 0.51 and 0.08
GRASP55/GORASP2, 37°C, 1600 nM prodigiosin
  normalized.Reporter.intensity: 1.12 and 0.54 and 0.88
GRASP55/GORASP2, 37°C, 6400 nM prodigiosin
  normalized.Reporter.intensity: -0.23 and 0.82 and 1.06
GRASP55/GORASP2, 37°C, Hill slope of fit
  H (dose response curve fit parameters, 37°C): 0.35 and 0.3479
GRASP55/GORASP2, 50°C
  pseudoR2 (dose response curve fit, 50°C): 0.97
GRASP55/GORASP2, 50°C, 0.0976562 nM prodigiosin
  normalized.Reporter.intensity: 0.0172 and 0.11 and 0.10
GRASP55/GORASP2, 50°C, 0.390625 nM prodigiosin
  normalized.Reporter.intensity: 0.12 and 0.19 and 0.10
GRASP55/GORASP2, 50°C, 1.5625 nM prodigiosin
  normalized.Reporter.intensity: 0.43 and 0.35 and 0.41
GRASP55/GORASP2, 50°C, 6.25 nM prodigiosin
  normalized.Reporter.intensity: 0.85 and 0.64 and 0.65
GRASP55/GORASP2, 50°C, 25 nM prodigiosin
  normalized.Reporter.intensity: 0.87 and 0.76 and 0.81
GRASP55/GORASP2, 50°C, 100 nM prodigiosin
  normalized.Reporter.intensity: 0.94 and 0.97 and 0.99
GRASP55/GORASP2, 50°C, 400 nM prodigiosin
  normalized.Reporter.intensity: 0.91 and 0.97 and 1.04
GRASP55/GORASP2, 50°C, 1600 nM prodigiosin
  normalized.Reporter.intensity: 1.02 and 1.10 and 1.01
GRASP55/GORASP2, 50°C, 6400 nM prodigiosin
  normalized.Reporter.intensity: 0.82 and 0.89 and 0.84
GRASP55/GORASP2, 50°C, Hill slope of fit
  H (dose response curve fit parameters, 50°C): 0.84 and 0.8417
HeLa wt, 6 h, 37 °C
  dose response of GRASP55 at 37 °C (abundance control): no dose response effects
pEC50 of GRASP55 stabilization, HeLa wt, 6 h
  EC50: 2.63 nM
